“Also recorded” adds a separate entry of the source. Read-outs that look alike come from different tables or passages of the source.
Tests used:
Format in all cases: cell-based, human
KOPM-88 (MLL-PTD) = assay: Combination proliferation study with Compound A2
Procedure: (§1) The HP-D300 digital dispenser (Tecan) was used to dispense compounds in a combinatorial matrix. […] Cell viability was measured via ATP content using CellTiter-Glo® (Promega).
(§2) Viability was determined using CellTiter-Glo® (Promega).

EOL-1 (MLL-PTD) = assay: Combination proliferation study with Compound A2
Procedure: as §1, §2

[1] = tested on: SKM-1 (non-MLL-rearranged AML); assay: Combination proliferation study with Compound A2 (ATP/CellTiter-Glo, Chou-Talalay combination index)
Procedure: (§3) Graphs representing values of combination index (CI) versus Fractional effect (Fa) known as Fa-CI plots were generated and synergy was evaluated.
as §3, §1, §2
MV4-11 cells were maintained in IMDM supplemented with 10% fetal bovine serum. MOLM-13 and SKM-1 cells were maintained in Roswell Park Memorial Institute medium (RPMI) supplemented with 10% fetal bovine serum. They were cultured in flasks or plates in a humidified 5% CO2 atmosphere.
Proliferation studies were performed using MOLM-13, MV4-11 and SKM-1 cell lines in vitro to evaluate the cancer cell killing effect of a combination of two agents together on cell growth. Initial proliferation studies were performed to determine the IC50 values of a given compound in each cell line. The cell counts were measured by ATP quantitation using the Promega Cell Titer Glo kit and luminescence values correspond to the amount of ATP in a given well.
Compounds evaluated for synergy in the co-treatment phase were tested in a range which was bracketed around the IC50's. The compounds were plated to a 96 well plate in a matrix format which includes increasing concentrations of each drug in the combination in a constant ratio, in addition to the effect of each compound alone in the study. Cells were seeded and grown in the log-linear phase for 3 or 7 days in the cotreatment phase. Maximum and minimum inhibition (DMSO alone) controls were used in each plate to calculate fraction affected (Fa) of a test well. DMSO concentration was kept at 0.1% v/v. The drug combination analysis was performed utilizing the Chou-Talalay method. Synergy was determined using the software package Calcusyn by Biosoft. The combination index (CI) is the term used to describe the level of synergy or antagonism in a given test system. A combination index less than one indicates synergy, and a CI greater than one indicates antagonism.
The drug combination analysis was performed using the Chou-Talalay method. Graphs representing values of combination index (CI) versus Fractional effect (Fa) known as Fa-CI plots were generated and synergy was evaluated.

MOLM-13 cells [2] = assay: Apoptosis by Annexin V flow cytometry (Guava Nexin)
Procedure: (§4) A Guava EasyCyte HT™ flow cytometer was used to measure DNA content, Annexin V staining and cell surface expression of CD14 and CD11b markers on Days 10 and 14.
(§5) On Day 0 MOLM-13 cells are seeded at 3,000 cells/mL. On Day 7 and Day 10 MOLM-13 cells are counted and reseeded at 50,000 cells/mL. […] On Day 10 They were redosed again. On Day 14 the experiment was terminated. Cells were sampled for CD14 and CD11b analysis on Days 7, 10 and 14.
(§6) To evaluate the fraction of cells in each cell cycle, flow cytometric analysis was performed. FACS analysis for detection of cell death by apoptosis, and cell cycle was performed.
(§7) Cells were harvested on days 7, 10 and 14 and split to allow simultaneous analysis of cell cycle and Annexin V staining. Apoptosis was determined using the Guava Nexin Assay (Millipore 4500-0450) and cells were prepared according to the manufacturer's recommendations. Samples were analyzed using the Guava EasyCyte Plus System (Millipore). Cells for cell cycle analysis were pelleted by centrifugation at 200×g for 5 minutes at 4° C., washed twice with ice cold PBS then fixed with 70% ice cold ethanol. All samples were analyzed together at end of experiment. Following fixation cells were washed with PBS and stained with the Guava cell cycle reagent (Millipore 4500-0220) for 30 minutes. Samples were analyzed using the Guava EasyCyte Plus System (Millipore).

MOLM-13 cells [3] = assay: Cell cycle / sub-G1 flow cytometry; conditions: 156 nM Compound A2 plus 63 nM Ara-C, 10 and 14 days
Procedure: as §4, §5, §6, §7

MV4-11 (MLL-AF4) = assay: Combination proliferation study with Compound A2 (ATP/CellTiter-Glo, Chou-Talalay combination index); conditions: for Combination of Compound A2 and anti-cancer agent, MV4-11: 7 Day Cotreatment; for Combination with Compound A2, MV4-111 MLL-AF4: Table 2, Example 3; for Combination with Compound A2, MV4-11 (MLL-AF4): 7 Day Cotreatment Model, Table 4
MOLM-13 (MLL-AF9) = assay: as above
In short: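 Viability by CellTiter-Glo ATP luminescence; Fa relative to DMSO controls. Combination index by Chou-Talalay (CI<1 synergy, =1 additive, >1 antagonism).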

MOLM-13 cells [4] = assay: CD11b and CD14 differentiation marker expression by flow cytometry; conditions: single agents
Procedure: as §4, §5
On day 7, 10, and 14, cells were collected for analysis. The cells were prepared by washing twice in PBS, followed by fixation in 4% formaldehyde for ten minutes at 37° C. After fixation cells were washed and blocked with blocking buffer for 10 minutes at room temperature. Cells were then incubated in presence of anti-CD14, anti-CD11b or anti-IgG antibody for 1 hour at room temperature while rotating. Cells were washed, re-suspended in PBS and 5,000 events were analyzed using ExpressPro software on the GuavaCyte Plus System.

[5] = Table 2, Example 3, listed as cytarabine
[6] = 7 Day Cotreatment Model, Table 4

## Nc1ccn([C@@H]2O[C@H](CO)[C@@H](O)[C@@H]2O)c(=O)n1 [Ara-C, cytarabine]
KOPM-88 (MLL-PTD); Table 3, Example 3
  Combination with Compound A2, KOPM-88 (MLL-PTD): Synergy (Drug synergy was statistically defined by CI values less than 1)
EOL-1 (MLL-PTD); Table 3, Example 3
  Combination with Compound A2, EOL-1 (MLL-PTD): Synergy (Drug synergy was statistically defined by CI values less than 1)
[1]; SKM-1, non-MLL-rearranged, Example 5
  Effect of Compound A2 on the antiproliferative activity of the second agent: did not affect
[1]; [5]
  Combination with Compound A2, SKM-1 AML: Non-rearranged: did not act synergistically
MOLM-13 cells [2]; 156 nM Compound A2 plus 63 nM Ara-C
  Apoptosis, combination with Compound A2: enhance apoptosis
MOLM-13 cells [2]; 14 day treatment, 156 nM Compound A2 or 63 nM Ara-C
  Induction of apoptosis, single agent: modest increase in apoptotic cell population
MOLM-13 cells [3]
  sub-G1 cell population, combination with Compound A2: significant increase in the population of sub-G1 cells
MV4-11 (MLL-AF4)
  Combination of Compound A2 and anti-cancer agent, MV4-11: Synergy (A combination index less than one indicates synergy)
  Combination with Compound A2, MV4-111 MLL-AF4: Strong Synergy
MV4-11 (MLL-AF4); MV4-11, pre-treatment model with Compound A2 washout
  Combination with Compound A2 when Compound A2 is washed out prior to the addition of the second agent: synergistic anti-proliferative activity was maintained
MV4-11 (MLL-AF4); listed as cytarabine
  Combination with Compound A2, MV4-111 MLL-AF4: synergistically
MOLM-13 (MLL-AF9); 4 + 3 Model: Compound A2 pretreatment 4 days, then co-treatment 3 days
  Combination of Compound A2 and anti-cancer agent, MOLM-13: Synergy (A combination index less than one indicates synergy)
MOLM-13 (MLL-AF9); 7 Day Cotreatment
  Combination of Compound A2 and anti-cancer agent, MOLM-13: Synergy (A combination index less than one indicates synergy)
MOLM-13 (MLL-AF9); [6]
  Combination with Compound A2, MOLM-13 (MLL-AF9): Strong Synergy
MOLM-13 (MLL-AF9); MOLM-13, Ara-C 3 days, then cotreatment with Compound A2 7 days
  Combination with Compound A2, reverse order of addition: Synergy
MOLM-13 (MLL-AF9); MOLM-13, Ara-C 3 days, washed out, then Compound A2 7 days
  Combination with Compound A2, reverse order of addition with Ara-C washout: Combination benefit is maintained
MOLM-13 (MLL-AF9); MOLM-13, pre-treatment model with Compound A2 washout
  Combination with Compound A2 when Compound A2 is washed out prior to the addition of the second agent: durable combination benefit; also recorded: synergistic anti-proliferative activity was maintained
MOLM-13 (MLL-AF9); Table 2, Example 3
  Combination with Compound A2, MOLM-13 (MLL-AF9): Synergy (Drug synergy was statistically defined by CI values less than 1)
MOLM-13 (MLL-AF9); [5]
  Combination with Compound A2, MOLM-13 (MLL-AF9): synergistically

## Nc1ncn([C@@H]2O[C@H](CO)[C@@H](O)[C@H]2O)c(=O)n1 [Azacitidine]
KOPM-88 (MLL-PTD); Table 3, Example 3
  Combination with Compound A2, KOPM-88 (MLL-PTD): Synergy (Drug synergy was statistically defined by CI values less than 1)
EOL-1 (MLL-PTD); Table 3, Example 3
  Combination with Compound A2, EOL-1 (MLL-PTD): Synergy (Drug synergy was statistically defined by CI values less than 1)
[1]; SKM-1, non-MLL-rearranged, Example 5, listed as Azacytidine
  Effect of Compound A2 on the antiproliferative activity of the second agent: not potentiated
[1]; SKM-1, non-MLL-rearranged, Example 5, listed as azacytidine
  Effect of Compound A2 on the antiproliferative activity of the second agent: no impact
MV4-11 (MLL-AF4)
  Combination of Compound A2 and anti-cancer agent, MV4-11: Synergy (A combination index less than one indicates synergy)
  Combination with Compound A2, MV4-11 (MLL-AF4): Synergy (Drug synergy was statistically defined by CI values less than 1)
  Combination with Compound A2, MV4-111 MLL-AF4: Synergy (Drug synergy was statistically defined by CI values less than 1)
MV4-11 (MLL-AF4); listed as azacytidine
  Combination with Compound A2, MV4-11 (MLL-AF4): synergistically induce an anti-proliferative effect; also recorded: synergistic anti-proliferative activity
MOLM-13 (MLL-AF9); [6]
  Combination with Compound A2, MOLM-13 (MLL-AF9): Strong Synergy
MOLM-13 (MLL-AF9); 7 Day Cotreatment Model, Table 4, listed as azacytidine
  Combination with Compound A2, MOLM-13 (MLL-AF9): synergistically induce an anti-proliferative effect; also recorded: synergistic anti-proliferative activity
MOLM-13 (MLL-AF9); Table 2, Example 3
  Combination with Compound A2, MOLM-13 (MLL-AF9): Synergy (Drug synergy was statistically defined by CI values less than 1)

## COc1cccc2c1C(=O)c1c(O)c3c(c(O)c1C2=O)C[C@@](O)(C(C)=O)C[C@@H]3O[C@H]1C[C@H](N)[C@H](O)[C@H](C)O1 [Daunorubicin]
KOPM-88 (MLL-PTD)
  Combination with Compound A2, KOPM-88 (MLL-PTD): Synergy (key: Synergy: Drug synergy was statistically defined by CI values less than 1; Antagonistic: antagonism by CI>1; Additive: additive effect by CI equal to 1)
EOL-1 (MLL-PTD)
  Combination with Compound A2, EOL-1 (MLL-PTD): Synergy (key: Synergy: Drug synergy was statistically defined by CI values less than 1; Antagonistic: antagonism by CI>1; Additive: additive effect by CI equal to 1)
[1]
  Combination with Compound A2, SKM-1 AML: Non-rearranged: did not act synergistically
  Effect of Compound A2 on the antiproliferative activity of the second agent: did not affect
MV4-11 (MLL-AF4)
  Combination with Compound A2 when Compound A2 is washed out prior to the addition of the second agent: synergistic anti-proliferative activity was maintained
MOLM-13 cells [4]
  Differentiation markers CD11b and CD14: The same effect was observed
MOLM-13 (MLL-AF9)
  Combination with Compound A2, MOLM-13 (MLL-AF9): Synergy (key: Synergy: Drug synergy was statistically defined by CI values less than 1; Antagonistic: antagonism by CI>1; Additive: additive effect by CI equal to 1)
  Combination with Compound A2 when Compound A2 is washed out prior to the addition of the second agent: synergistic anti-proliferative activity was maintained

From patent US20200030355A1, “COMBINATION THERAPY FOR TREATING CANCER” (Epizyme, Inc., priority 2014, published 2020)
